Assay results as given in patent US20230285570A1, “THERAPEUTICALLY USEFUL CURE-PRO MOLECULES FOR E3 LIGASE MEDIATED DEGRADATION OF PROTEINS, AND METHODS OF MAKING AND USING THEM” (CORNELL UNIVERSITY, priority 2020, published 2023).
Entries after “also recorded” stand apart in the source; their conditions may differ.

Assays:
Format in all cases: cell-based
CRBN = target: T1, CRBN (Homo sapiens, UniProt Q96SW2); test: CURE-PRO-mediated CRBN degradation in HeLa cells, Western blot; details: 24 h
T1 construct: endogenous in cells; host or cells: HeLa
T1 sequence (Q96SW2 whole entry): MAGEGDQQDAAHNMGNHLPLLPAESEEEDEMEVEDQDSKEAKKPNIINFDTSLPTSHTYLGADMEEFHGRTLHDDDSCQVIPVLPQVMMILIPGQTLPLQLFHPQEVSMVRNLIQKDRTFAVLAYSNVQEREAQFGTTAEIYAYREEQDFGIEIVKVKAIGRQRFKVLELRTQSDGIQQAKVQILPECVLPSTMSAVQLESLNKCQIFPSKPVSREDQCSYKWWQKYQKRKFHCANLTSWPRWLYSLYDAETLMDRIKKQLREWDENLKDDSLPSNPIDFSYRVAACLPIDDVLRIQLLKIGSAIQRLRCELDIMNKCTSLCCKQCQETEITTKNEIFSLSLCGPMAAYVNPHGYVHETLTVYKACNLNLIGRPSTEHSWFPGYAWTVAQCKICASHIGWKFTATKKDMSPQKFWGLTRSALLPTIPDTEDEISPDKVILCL
Method: Namalwa, Ramosm HeLa, MCF7, or HT29 HCT116 cells (2.5-3×10^6) were treated for 24 hours with the indicated compounds solubilized in DMSO. The cells were washed in ice-cold PBS and were then lysed in RIPA lysis buffer (150 mM NaCl, 5 mM EDTA, 1% NP-40, 0.5% sodium deoxycholate, 0.1% SDS, 50 mM Tris, pH 8.0.) with Roche protease inhibitor complete cocktail and phosphatase inhibitors (10 mM sodium fluoride, 10 mM sodium pyrophosphate, 1 mM sodium orthovanadate and 20 mM β-glycerophosphate). The total protein concentrations were determined by Bradford Protein Assay (Pierce) and 10-20 μg of protein was loaded onto 4-15% Tris-Glycine gradient gels (Biorad). After standard gel electrophoresis, the separated proteins were transferred to PVDF membrane by wet transfer. The immunoblots were then blocked for 1 hour in 5% skim milk in TBST or 5% BSA in TBST, according to manufacturer's instructions, before an overnight incubation at 4° C. with indicated antibodies and membranes. […] Signal was detected with ECL Western Blotting Substrate (Pierce) and X-ray film processed with a Konica SRX-101 X-ray film processor or captured by Bio-Rad's Chemidoc Imaging system. […]

HCT116 cells = test: MTT toxicity of E3 ligase CURE-PRO monomers, HCT116 cells; details: monomer alone, HCT116, 10 nM-30 μM, 24 h
Method: (§1) CURE-PRO ligands for the E3 ubiquitin ligases were assessed for toxicity by MTT assays as described above. CURE-PRO monomers (10 nM-30 μM) were solubilized in DMSO and added in triplicate to cells (1×10^5 cells/well) seeded in 96 well plates on the previous day. HCT116 (FIG. 105A), MCF7 (FIG. 105B), and HT29 cells (FIG. 105C) were treated with the CURE-PRO monomers for 24 h.

HT29 cells = test: MTT toxicity of E3 ligase CURE-PRO monomers, HT29 cells; details: monomer alone, HT29, 10 nM-30 μM, 24 h
Method: as §1

Namalwa cells = test: CellTiter-Glo cell viability, Namalwa cells; details: co-dosed 1:1 with CRBN ligand 8047, Namalwa, 72 h, 10 nM-10 μM
Method: CellTiter-Glo® 2.0 Cell Viability Assay (Promega) was carried out following the manufacturer's recommendations. Cells were seeded at a density of 1000 cells/well in a white 96 well plates (Corning, #3917) in a total volume of 100 μl with respective monomers, combinations of BRD ligands together with E3 ligase ligands or vehicle control treatment. After a 72 h incubation, 100 ul of the CellTiter-Glo® substrate was added per well and luminescence was read on a Spectramax M5 (Molecular Devices). Dose-response curves were generated using Graphpad Prism software.
Namalwa cells (1×10^4) were treated for 72 hours with the compounds solubilized in DMSO. Compounds were added at 10 nM-10 μM each. Cellular viability was determined using the CellTiter-Glo® Luminescent Cell Viability Assay (Promega) described above. FIG. 56 depicts the CURE-PRO-mediated loss of cellular viability for the BRD-E72 monomer (JQ1 derivatives comprising of boronic acid linkers), and the CRBN ligand, 8047 (a pomalidomide derivative comprising diol linkers) combined in a 1:1 ratio.

caspase 3/7 = test: Caspase-Glo 3/7 assay, Namalwa cells; details: 1:1 with CRBN ligand 8047, Namalwa, 24 h
Method: Caspase-glo® assay (Promega) was conducted following the manufacturer's recommendations. Cells were seeded at a density of 5000 cells/well in a white 96 well plates (Corning, #3917) in a total volume of 100 μl with respective monomers, combinations of BRD ligands together with E3 ligase ligands or vehicle control treatment. After a 24 h incubation, 100 μl of the […] substrate was added per well and luminescence was read on a Spectramax M5 (Molecular Devices).
Namalwa cells (5×10^4) were treated for 24 hours with the compounds solubilized in DMSO. FIG. 57 is a bar graph depiction of fold increase of apoptosis assessed via caspase 3/7 activity using the Caspase-Glo assay (Promega) described above.
Molm-13 (FIG. 76A) or Namalwa (FIG. 76B) cells (5×10^4) were treated for 24 hours with the compounds solubilized in DMSO in white 96 well plates (10 nM-10 μM solubilized in DMSO). FIG. 76 is a bar graph depiction of fold increase of apoptosis assessed via caspase 3/7 activity using the Caspase-Glo assay (Promega) described above.

BRD4 [1] = target: T2, BRD4 (Homo sapiens, UniProt O60885); test: Summary of BRD4 degradation by CURE-PRO pairs, estimated from Western Blot or WES; set-up: endogenous in cells; details: Table 1, aryl-boronic acid BRD4 ligand + 8047
Outline: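 Namalwa, Ramos, HeLa, MCF7, HT29 or HCT116 cells treated 24 h with compounds in DMSO; RIPA lysates analysed by Western blot (ECL) or capillary WES immunodetection. Check mark denotes 30% to 70% or higher protein degradation.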

BRD4 [2] = target: T2, BRD4; test: CURE-PRO-mediated BRD4 degradation in HeLa cells, Western blot; set-up: endogenous in cells; host or cells: HeLa; details: 24 h
Outline: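 HeLa cells (2.5×10^6) treated 24 h with DMSO-solubilized compounds, degrader pairs combined 1:1, at 1 nM-1 μM, 1-10 μM, 10 μM or 10 and 100 μM each depending on series. RIPA lysates (10-20 μg protein) run on SDS-PAGE and immunoblotted for BRD4 with ECL detection.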

BRD4 [3] = target: T2, BRD4; test: CURE-PRO-mediated BRD4 degradation in HeLa cells, WES capillary electrophoresis (ProteinSimple); set-up: endogenous in cells; host or cells: HeLa
Method: All cell lines were purchased from ATCC or DSMZ and grown at 37° C. with 5% CO2. Human HeLa cells were cultured in complete growth medium (Dulbecco's modified Eagle's medium (DMEM) supplemented with 10% FBS); MCF7 cells were cultured in complete growth medium (Dulbecco's modified Eagle's medium (DMEM) supplemented with 10% FBS and 0.01 mg/ml human recombinant insulin (Sigma Aldrich); Namalwa and Ramos cells were cultured in complete growth medium (RPMI 1640 medium supplemented with 10% FBS); HCT116 and HT29 cells were cultured in complete growth medium (McCoy's 5a Medium supplemented with 10% FBS). For cellular degradation of BRD4 studies cells were seeded in a 12-well plate at 70-80% confluency, allowed to attach overnight, and incubated with the indicated compounds for the indicated time. When indicated, a 15-minute pretreatment with 10 μM pomalidomide, 10 μM VHL298, 10 μM Nutlin3a, 1 μM MG-132 or 1 μM Carfilzomib was performed before the addition of CURE-PROs. For washout studies, after CURE-PRO treatment, media was aspirated and incubated with complete medium for the indicated time before lysis.
WES Simple analysis was performed on WES system (ProteinSimple-Biotechne) according to the manufacturer's instructions. Total protein concentrations of cell lysates were determined by the Pierce BCA kit (Thermo Fisher). 3 μL of 0.3 μg/μL of the protein lysate was loaded onto a 12- to 230-kDa WES assay plate (ProteinSimple) where 300 nL sample was withdrawn through a capillary, subjected to electrophoretic separation of proteins by size, and followed by the simultaneous, HRP-based detection of proteins using the Anti-Rabbit Detection Module (Proteinsimple: #DM-001). The electropherograms were checked then the automatic peak detection was manually corrected if it was required.
HeLa cells (2.5×10^6) were treated for 4-24 hours with the compounds solubilized in DMSO. After 4 hours, indicated points were washed and cells were left in full growth media. Compounds were added at 10 μM each. Standardized protein samples were electrophoresed and imaged as described in the WES ProteinSimple section above. FIGS. 44 and 45 depict the time-dependence of CURE-PRO-mediated BRD4 degradation with the BRD-E52 ligand (FIG. 44) and BRD-E72 ligand (FIG. 45), both JQ1 derivatives comprising of boronic acid linkers, and the CRBN binding ligands (8046, 8047, and 8066), pomalidomide derivatives comprising diol linkers.
HeLa cells (2.5×10^6) were treated for 24 hours with the compounds solubilized in DMSO. Compounds were added at 100 nM-10 μM each. Standardized protein samples were electrophoresed and imaged as described in the WES ProteinSimple section above. FIG. 46 depicts the concentration-dependence of CURE-PRO-mediated BRD4 degradation and the requirement for monomer dimerization.

CC(C)(O)C(=O)C(=O)NCc1cccc2c1C(=O)N(C1CCC(=O)NC1=O)C2=O (centres unmarked) [compound 8065]
concentrations at which CRBN degradation is noted (CRBN): 10 to 100 µM

COc1ccc(C2=N[C@@H](c3ccc(Cl)cc3)[C@@H](c3ccc(Cl)cc3)N2C(=O)N2CCN(CCNC(=O)c3cccc(B(O)O)c3)C(=O)C2)c(OC(C)C)c1 [compound 8312, (3-((2-(4-((4S,5R)-4,5-bis(4-chlorophenyl)-2-(2-isopropoxy-4-methoxyphenyl)-4,5-dihydro-1H-imidazole-1-carbonyl)-2-oxopiperazin-1-yl)ethyl)carbamoyl)phenyl)boronic acid]
loss of viability (MTT) (HCT116 cells): loss of viability only noted at higher concentrations (30 μM); also recorded: Toxicity at higher concentrations | loss of viability (MTT) (HT29 cells): loss of viability only noted at higher concentrations (30 μM); also recorded: Toxicity at higher concentrations

CCNC(=O)C[C@@H]1N=C(c2ccc(Cl)cc2)c2cc(-c3cccc(B(O)O)c3)ccc2-n2c(C)nnc21 [BRD-E72, (3-((4S)-6-(4-chlorophenyl)-4-(2-(ethylamino)-2-oxoethyl)-1-methyl-4H-benzo[f][1,2,4]triazolo[4,3-a][1,4]diazepin-8-yl)phenyl)boronic acid]
loss of cellular viability versus monomer alone (Namalwa cells): an increase in the loss of viability compared to monomer treatment alone; also recorded: marked loss in cell viability | caspase 3/7 activation (caspase 3/7): demonstrates activation of caspase 3/7; also recorded: marked caspase activation | Degradation of BRD4, combination with CRBN ligand 8047 (BRD4 [1]): √ (A black check mark indicates efficacy of 30% to 70% or higher protein degradation) | BRD4 degradation after pomalidomide preincubation (BRD4 [2]; 1:1 with 8047, 10 μM, pomalidomide preincubated 15 min at equimolar concentration): inhibition of CURE-PRO-mediated BRD4 degradation | BRD4 degradation (BRD4 [2]; BRD ligand with pomalidomide (no 8047), HeLa, 10 μM): failed to induce BRD4 degradation | BRD4 degradation (BRD4 [2]; co-treated 1:1 with CRBN ligand 8047, HeLa, 10 μM each): CURE-PRO-mediated degradation of BRD4 | sustained BRD4 degradation after drugs are washed out (BRD4 [3]; co-dosed with 8047, 10 μM each, washed after 4 h): up to 8 h | BRD4 degradation, time course (BRD4 [3]; co-dosed with CRBN ligand 8047, HeLa, 10 μM each, 4-24 h): marked BRD4 degradation after 4 h
